Measurements: ChEMBL document CHEMBL1201862, “PubChem BioAssay data set” (2004)
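Where inhibition never reached the appropriate level, the endpoint shown equals the highest concentration tested. Otherwise, values were interpolated linearly from a five-concentration, 48-hour dose response in 96-well plates. Abbreviation: GI50, concentration required for 50% inhibition of growth.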 Active and inactive are the calls of the source. Rule as the data show it: active = GI50 up to about 1.1 µM and inactive = higher.

Key:
Assay in all cases: NCI anticancer screen, dose series, 48 h
NCI-H226 = test system: NCI-H226
EKVX = test system: EKVX
SK-MEL-2 = test system: SK-MEL-2
TK-10 = test system: TK-10
SK-MEL-28 = test system: SK-MEL-28
MOLT-4 = test system: MOLT-4
T47D = test system: T47D
U-251 = test system: U-251
M14 = test system: M14
HOP-92 = test system: HOP-92
SNB-75 = test system: SNB-75
A498 = test system: A498
SK-MEL-5 = test system: SK-MEL-5
PC-3 = test system: PC-3
HT-29 = test system: HT-29
UACC-257 = test system: UACC-257
NCI-H522 = test system: NCI-H522
HCT-116 = test system: HCT-116
SR = test system: SR
K562 = test system: K562
CCRF-CEM = test system: CCRF-CEM
MDA-MB-231 = test system: MDA-MB-231
RXF 393 = test system: RXF 393
SW-620 = test system: SW-620
SF-268 = test system: SF-268
NCI-H23 = test system: NCI-H23
MDA-MB-435 = test system: MDA-MB-435
A549 = test system: A549
OVCAR-8 = test system: OVCAR-8
NCI/ADR-RES = test system: NCI/ADR-RES
HOP-62 = test system: HOP-62
BT-549 = test system: BT-549
MDA-N = test system: MDA-N
OVCAR-5 = test system: OVCAR-5
SNB-19 = test system: SNB-19
SF-539 = test system: SF-539
RPMI-8226 = test system: RPMI-8226
DU-145 = test system: DU-145
SN12C = test system: SN12C
NCI-H460 = test system: NCI-H460
HL-60 = test system: HL-60
KM12 = test system: KM12
OVCAR-3 = test system: OVCAR-3
SK-OV-3 = test system: SK-OV-3
Hs-578T = test system: Hs-578T
CAKI-1 = test system: CAKI-1
LOX IMVI = test system: LOX IMVI
786-0 = test system: 786-0
Malme-3M = test system: Malme-3M
UACC-62 = test system: UACC-62
HCT-15 = test system: HCT-15
SF-295 = test system: SF-295
IGROV-1 = test system: IGROV-1
ACHN = test system: ACHN
HCC 2998 = test system: HCC 2998
COLO 205 = test system: COLO 205
OVCAR-4 = test system: OVCAR-4
UO-31 = test system: UO-31
MCF7 = test system: MCF7

Measured: GI50

CC(=O)c1c(SCCN2CCCCCC2)n(-c2ccccc2)c(=S)n(-c2ccccc2)c1=O
active: SR 1.09 µM | CCRF-CEM 0.0462 µM | RPMI-8226 0.384 µM | HL-60 0.019 µM
inactive: NCI-H226 29 µM | EKVX 19.2 µM | SK-MEL-2 19.4 µM | TK-10 2.07 µM | SK-MEL-28 11.2 µM | MOLT-4 2.16 µM | T47D 2.31 µM | U-251 15.9 µM | M14 2.15 µM | HOP-92 6.53 µM | SNB-75 13.8 µM | A498 13.4 µM | SK-MEL-5 9.68 µM | PC-3 5.26 µM | HT-29 7.4 µM | UACC-257 4.07 µM | NCI-H522 1.43 µM | HCT-116 6.81 µM | K562 2.61 µM | MDA-MB-231 14.4 µM | RXF 393 1.73 µM | SW-620 2.04 µM | SF-268 11 µM | NCI-H23 17.3 µM | MDA-MB-435 12.9 µM | A549 6.82 µM | OVCAR-8 10.7 µM | NCI/ADR-RES 34.5 µM | HOP-62 19.5 µM | BT-549 16.6 µM | MDA-N 7.29 µM | OVCAR-5 24.4 µM | SNB-19 51.1 µM | SF-539 6 µM | DU-145 2.17 µM | SN12C 5.92 µM | NCI-H460 24.7 µM | KM12 18.6 µM | OVCAR-3 3.13 µM | SK-OV-3 48.3 µM | Hs-578T 17.7 µM | CAKI-1 3.85 µM | LOX IMVI 3.16 µM | 786-0 1.73 µM | Malme-3M 1.51 µM | UACC-62 7.85 µM | SF-295 35.9 µM | IGROV-1 8.3 µM | ACHN 1.68 µM | HCC 2998 4.3 µM | COLO 205 2.03 µM | OVCAR-4 20.9 µM
5.61 µM: HCT-15

Cc1[nH]c2c(C)ccc(C)c2c1CC(=O)O
53.5 µM: HCT-15
inactive: NCI-H226 33.7 µM | EKVX 39 µM | SK-MEL-2 18.2 µM | TK-10 57 µM | SK-MEL-28 61.8 µM | MOLT-4 26.5 µM | T47D 41.8 µM | U-251 35.9 µM | M14 41 µM | A498 57 µM | SK-MEL-5 48.9 µM | PC-3 22 µM | HT-29 43.3 µM | UACC-257 30.5 µM | NCI-H522 24.2 µM | HCT-116 38.5 µM | K562 34.4 µM | CCRF-CEM 20 µM | MDA-MB-231 13 µM | RXF 393 > 100 µM | SW-620 42.9 µM | UO-31 37 µM | SF-268 44.2 µM | NCI-H23 51.8 µM | MDA-MB-435 42.3 µM | A549 42.3 µM | OVCAR-8 32.5 µM | NCI/ADR-RES 54.6 µM | HOP-62 81.5 µM | BT-549 54.6 µM | MDA-N 31.5 µM | OVCAR-5 > 100 µM | SNB-19 92 µM | SF-539 94.2 µM | RPMI-8226 25.7 µM | DU-145 > 100 µM | MCF7 36.6 µM | SN12C 34.3 µM | NCI-H460 31 µM | HL-60 5.43 µM | KM12 32.2 µM | OVCAR-3 31.3 µM | SK-OV-3 > 100 µM | Hs-578T 25.2 µM | CAKI-1 43 µM | LOX IMVI 36.5 µM | 786-0 43.9 µM | Malme-3M 37.7 µM | UACC-62 43.1 µM | SF-295 50.1 µM | IGROV-1 17.6 µM | ACHN 59.4 µM | HCC 2998 29.6 µM | COLO 205 40 µM | OVCAR-4 38.1 µM
